What was measured:
[1] = target: Casein kinase II subunit alpha (Homo sapiens, UniProt P68400); assay: Selectivity interaction (Kinase panel (DSF assay)) EUB0001559a CSNK2A1
[2] = target: T1, Tyrosine-protein kinase Tec (Homo sapiens) (UniProt P42680); assay: Selectivity interaction (KinomeScan (DiscoverX)) EUB0001079a TEC; conditions: at 1 µM
T1 sequence (whole entry): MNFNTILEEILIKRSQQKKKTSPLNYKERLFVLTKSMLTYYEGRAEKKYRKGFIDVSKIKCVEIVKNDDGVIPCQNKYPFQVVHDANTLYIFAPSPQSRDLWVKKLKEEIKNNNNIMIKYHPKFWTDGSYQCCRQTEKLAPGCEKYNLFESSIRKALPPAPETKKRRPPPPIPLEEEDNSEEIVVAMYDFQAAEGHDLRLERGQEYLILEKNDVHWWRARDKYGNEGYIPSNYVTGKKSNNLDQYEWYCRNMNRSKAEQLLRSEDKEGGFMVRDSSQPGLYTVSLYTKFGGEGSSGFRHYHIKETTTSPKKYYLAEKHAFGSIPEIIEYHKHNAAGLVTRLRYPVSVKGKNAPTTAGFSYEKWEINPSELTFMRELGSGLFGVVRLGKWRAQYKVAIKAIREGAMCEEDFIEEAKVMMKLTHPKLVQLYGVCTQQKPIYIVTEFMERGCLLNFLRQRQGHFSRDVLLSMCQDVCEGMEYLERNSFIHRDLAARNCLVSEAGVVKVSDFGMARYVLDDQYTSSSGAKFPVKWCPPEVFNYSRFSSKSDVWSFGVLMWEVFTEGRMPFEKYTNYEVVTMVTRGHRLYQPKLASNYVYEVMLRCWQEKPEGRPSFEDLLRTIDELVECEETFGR

[3] = target: T2, Histone-lysine N-methyltransferase SUV39H1 (Homo sapiens) (UniProt O43463); assay: Selectivity interaction (Methyltransferase screen (radiometric assays, panel of 8 PRMTs, 21 protein lysine methyltransferases, 3 DNA methyltransferases, and one RNA methyltransferase)) EUB0000271b SUV39H1
T2 sequence (whole entry): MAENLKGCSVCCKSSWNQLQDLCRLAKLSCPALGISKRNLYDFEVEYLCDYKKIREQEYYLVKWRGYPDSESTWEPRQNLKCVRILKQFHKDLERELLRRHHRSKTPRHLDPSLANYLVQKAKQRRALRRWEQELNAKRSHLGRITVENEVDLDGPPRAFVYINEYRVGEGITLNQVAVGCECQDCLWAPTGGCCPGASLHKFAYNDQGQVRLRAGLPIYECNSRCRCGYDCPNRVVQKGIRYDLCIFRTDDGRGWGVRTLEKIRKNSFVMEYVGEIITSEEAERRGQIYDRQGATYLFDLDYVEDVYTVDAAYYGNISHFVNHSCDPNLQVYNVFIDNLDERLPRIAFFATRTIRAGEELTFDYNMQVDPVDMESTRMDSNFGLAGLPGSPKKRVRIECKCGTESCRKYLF

[4] = target: Casein kinase I isoform delta (Homo sapiens, UniProt P48730); assay: Selectivity interaction (Upstate Kinase Profiler service (Millipore)) EUB0000056c CSNK1D; conditions: at 1 µM
[5] = target: Phosphatidylinositol 4,5-bisphosphate 3-kinase catalytic subunit gamma isoform (Homo sapiens) (UniProt P48736); assay: Selectivity interaction (KinomeScan (DiscoverX)) EUB0000877a PIK3CG; conditions: at 10 µM
[6] = target: MAP kinase-activated protein kinase 2 (Homo sapiens, UniProt P49137)
[7] = target: Tyrosine-protein kinase receptor UFO (Homo sapiens) (UniProt P30530); assay: Selectivity interaction (Kinase panel (Invitrogen)) EUB0000639a AXL; conditions: at 200 nM
[8] = target: 5'-AMP-activated protein kinase catalytic subunit alpha-1 (Homo sapiens, UniProt Q13131); assay: Selectivity interaction (ActivX KiNativ screen (kinase selectivity in THP-1 cell lysates)) EUB0000639a PRKAA1; format: subcellular; conditions: lysate, at 5 µM
[9] = target: Tyrosine-protein kinase JAK1 (Homo sapiens, UniProt P23458); assay: Selectivity interaction (KinomeScan (DiscoverX)) EUB0000655a JAK1; conditions: at 10 µM
[10] = target: Ribosomal protein S6 kinase alpha-4 (Homo sapiens) (UniProt O75676); assay: Selectivity interaction (KinomeScan (DiscoverX)) EUB0000655a RPS6KA4; conditions: at 10 µM
[11] = target: Mitogen-activated protein kinase 7 (Homo sapiens) (UniProt Q13164); assay: Selectivity interaction (KinomeScan (DiscoverX)) EUB0000655a MAPK7; conditions: at 10 µM
[12] = target: T3, Serine/threonine-protein kinase LATS1 (Homo sapiens) (UniProt O95835); assay: Selectivity interaction (KinomeScan (DiscoverX)) EUB0000092b LATS1; conditions: at 10 µM
T3 sequence (whole entry): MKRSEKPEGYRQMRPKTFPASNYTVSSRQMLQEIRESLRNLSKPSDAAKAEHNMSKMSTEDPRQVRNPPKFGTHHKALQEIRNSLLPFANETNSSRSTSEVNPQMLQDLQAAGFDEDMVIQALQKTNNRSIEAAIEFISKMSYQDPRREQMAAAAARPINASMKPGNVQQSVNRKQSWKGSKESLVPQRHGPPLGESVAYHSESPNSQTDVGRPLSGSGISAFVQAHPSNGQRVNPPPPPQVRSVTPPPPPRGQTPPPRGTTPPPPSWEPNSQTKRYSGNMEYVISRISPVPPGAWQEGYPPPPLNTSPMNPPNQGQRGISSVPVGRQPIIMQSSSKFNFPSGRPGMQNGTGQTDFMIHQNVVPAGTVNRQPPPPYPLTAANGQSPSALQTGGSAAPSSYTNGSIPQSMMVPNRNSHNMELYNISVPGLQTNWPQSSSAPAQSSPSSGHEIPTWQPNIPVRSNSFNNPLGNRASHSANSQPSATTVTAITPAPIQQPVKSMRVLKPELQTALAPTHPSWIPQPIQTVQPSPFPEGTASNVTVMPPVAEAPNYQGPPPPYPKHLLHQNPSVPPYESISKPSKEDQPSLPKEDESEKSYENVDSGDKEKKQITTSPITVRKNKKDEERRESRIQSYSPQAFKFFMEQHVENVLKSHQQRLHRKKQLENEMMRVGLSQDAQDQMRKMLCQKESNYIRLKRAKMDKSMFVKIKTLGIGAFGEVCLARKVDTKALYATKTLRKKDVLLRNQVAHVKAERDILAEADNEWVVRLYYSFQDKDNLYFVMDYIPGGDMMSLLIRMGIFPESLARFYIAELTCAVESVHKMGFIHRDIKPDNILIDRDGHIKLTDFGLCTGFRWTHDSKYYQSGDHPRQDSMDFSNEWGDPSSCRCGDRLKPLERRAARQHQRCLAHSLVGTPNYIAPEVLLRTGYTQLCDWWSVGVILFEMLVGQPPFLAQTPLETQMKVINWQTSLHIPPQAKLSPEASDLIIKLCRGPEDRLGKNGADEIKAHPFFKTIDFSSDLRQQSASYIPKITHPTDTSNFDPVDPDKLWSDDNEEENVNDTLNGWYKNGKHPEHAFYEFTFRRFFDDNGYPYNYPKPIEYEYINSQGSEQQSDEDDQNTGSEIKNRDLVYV

Chain of Tyrosine-protein kinase JAK1 (P23458 whole entry): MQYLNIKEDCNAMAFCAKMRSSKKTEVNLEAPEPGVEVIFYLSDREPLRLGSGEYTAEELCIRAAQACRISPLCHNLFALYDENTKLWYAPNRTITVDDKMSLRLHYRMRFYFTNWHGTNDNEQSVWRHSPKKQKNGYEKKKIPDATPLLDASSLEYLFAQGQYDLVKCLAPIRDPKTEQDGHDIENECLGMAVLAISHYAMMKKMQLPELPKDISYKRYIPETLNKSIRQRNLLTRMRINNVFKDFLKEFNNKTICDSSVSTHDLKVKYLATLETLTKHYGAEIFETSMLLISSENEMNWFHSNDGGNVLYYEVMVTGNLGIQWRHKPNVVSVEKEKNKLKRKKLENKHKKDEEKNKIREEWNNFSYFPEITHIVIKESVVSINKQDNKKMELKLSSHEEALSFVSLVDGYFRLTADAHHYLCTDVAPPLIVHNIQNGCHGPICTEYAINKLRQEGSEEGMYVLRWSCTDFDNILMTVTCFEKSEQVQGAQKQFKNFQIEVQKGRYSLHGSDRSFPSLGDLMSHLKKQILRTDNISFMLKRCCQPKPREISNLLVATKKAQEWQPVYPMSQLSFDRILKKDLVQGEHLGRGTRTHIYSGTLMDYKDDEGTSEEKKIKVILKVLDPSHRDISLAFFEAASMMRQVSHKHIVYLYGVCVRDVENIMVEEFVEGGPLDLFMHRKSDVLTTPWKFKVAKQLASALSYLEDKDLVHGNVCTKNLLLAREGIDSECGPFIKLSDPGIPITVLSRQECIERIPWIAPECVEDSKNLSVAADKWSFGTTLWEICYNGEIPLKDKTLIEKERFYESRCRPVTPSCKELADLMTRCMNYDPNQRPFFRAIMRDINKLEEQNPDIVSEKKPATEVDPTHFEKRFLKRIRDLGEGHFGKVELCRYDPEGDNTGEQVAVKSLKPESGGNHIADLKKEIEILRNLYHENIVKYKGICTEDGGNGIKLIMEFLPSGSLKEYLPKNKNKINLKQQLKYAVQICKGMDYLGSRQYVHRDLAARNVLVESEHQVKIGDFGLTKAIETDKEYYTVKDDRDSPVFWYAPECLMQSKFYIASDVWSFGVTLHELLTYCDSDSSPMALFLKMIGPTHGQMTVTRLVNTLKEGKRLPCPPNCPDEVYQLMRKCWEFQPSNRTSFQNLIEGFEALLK
Chain of Ribosomal protein S6 kinase alpha-4 (Homo sapiens) (O75676 whole entry, looked up): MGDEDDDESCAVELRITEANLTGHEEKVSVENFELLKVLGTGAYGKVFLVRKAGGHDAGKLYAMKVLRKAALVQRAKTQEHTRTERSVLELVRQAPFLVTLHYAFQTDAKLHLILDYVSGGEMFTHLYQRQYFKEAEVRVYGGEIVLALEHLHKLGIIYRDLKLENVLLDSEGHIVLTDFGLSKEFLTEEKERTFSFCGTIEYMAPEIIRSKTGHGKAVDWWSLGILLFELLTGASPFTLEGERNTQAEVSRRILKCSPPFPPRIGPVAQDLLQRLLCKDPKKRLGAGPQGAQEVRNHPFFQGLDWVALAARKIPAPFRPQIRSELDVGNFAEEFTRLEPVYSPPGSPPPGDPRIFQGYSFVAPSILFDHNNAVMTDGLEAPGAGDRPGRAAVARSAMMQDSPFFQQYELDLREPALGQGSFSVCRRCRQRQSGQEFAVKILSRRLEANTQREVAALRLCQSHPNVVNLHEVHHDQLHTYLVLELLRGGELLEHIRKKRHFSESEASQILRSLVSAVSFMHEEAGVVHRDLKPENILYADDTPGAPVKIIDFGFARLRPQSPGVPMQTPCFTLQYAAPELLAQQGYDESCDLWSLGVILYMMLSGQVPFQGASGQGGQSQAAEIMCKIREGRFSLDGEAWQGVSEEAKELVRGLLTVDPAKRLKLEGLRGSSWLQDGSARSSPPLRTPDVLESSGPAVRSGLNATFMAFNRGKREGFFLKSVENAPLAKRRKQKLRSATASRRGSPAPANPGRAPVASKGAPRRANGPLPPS
Chain of Casein kinase I isoform delta (P48730 whole entry, looked up, canonical isoform): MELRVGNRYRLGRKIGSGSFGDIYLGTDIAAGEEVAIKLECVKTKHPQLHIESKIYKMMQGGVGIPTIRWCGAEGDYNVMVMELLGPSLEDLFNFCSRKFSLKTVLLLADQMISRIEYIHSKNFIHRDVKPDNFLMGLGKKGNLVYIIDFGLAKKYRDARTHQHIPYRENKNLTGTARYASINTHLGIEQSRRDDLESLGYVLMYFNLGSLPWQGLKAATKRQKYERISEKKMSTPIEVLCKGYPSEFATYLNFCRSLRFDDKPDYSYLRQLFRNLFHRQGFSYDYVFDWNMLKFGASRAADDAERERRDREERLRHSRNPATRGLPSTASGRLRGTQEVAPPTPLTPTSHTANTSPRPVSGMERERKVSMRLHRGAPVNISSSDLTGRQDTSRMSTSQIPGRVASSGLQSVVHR
Chain of 5'-AMP-activated protein kinase catalytic subunit alpha-1 (Q13131 whole entry, looked up): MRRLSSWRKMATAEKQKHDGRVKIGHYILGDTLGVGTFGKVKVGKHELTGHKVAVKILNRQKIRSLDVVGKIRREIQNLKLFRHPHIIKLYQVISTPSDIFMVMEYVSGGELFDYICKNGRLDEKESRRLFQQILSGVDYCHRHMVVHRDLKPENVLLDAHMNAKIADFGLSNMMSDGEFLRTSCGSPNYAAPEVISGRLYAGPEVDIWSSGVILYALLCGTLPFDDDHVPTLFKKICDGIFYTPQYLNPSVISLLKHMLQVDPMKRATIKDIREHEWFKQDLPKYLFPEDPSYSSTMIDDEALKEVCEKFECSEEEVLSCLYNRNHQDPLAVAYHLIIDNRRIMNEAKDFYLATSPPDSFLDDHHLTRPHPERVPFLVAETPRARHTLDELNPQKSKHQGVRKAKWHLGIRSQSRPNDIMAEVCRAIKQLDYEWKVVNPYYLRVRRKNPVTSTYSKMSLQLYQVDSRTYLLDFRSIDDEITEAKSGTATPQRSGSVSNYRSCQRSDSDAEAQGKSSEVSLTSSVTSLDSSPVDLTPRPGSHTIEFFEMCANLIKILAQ
Chain of Casein kinase II subunit alpha (P68400 whole entry, looked up): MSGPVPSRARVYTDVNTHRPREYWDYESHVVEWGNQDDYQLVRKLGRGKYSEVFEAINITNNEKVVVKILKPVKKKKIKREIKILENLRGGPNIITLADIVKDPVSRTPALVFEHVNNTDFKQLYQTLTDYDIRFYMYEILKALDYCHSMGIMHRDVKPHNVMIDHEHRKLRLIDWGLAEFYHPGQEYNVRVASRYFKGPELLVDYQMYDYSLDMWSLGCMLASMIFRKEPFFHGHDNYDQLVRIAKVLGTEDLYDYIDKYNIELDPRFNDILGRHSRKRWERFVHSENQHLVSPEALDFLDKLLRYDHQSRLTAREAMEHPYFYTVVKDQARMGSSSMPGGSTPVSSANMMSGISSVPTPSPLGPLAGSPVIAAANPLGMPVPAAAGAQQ
Chain of Tyrosine-protein kinase receptor UFO (Homo sapiens) (P30530 whole entry): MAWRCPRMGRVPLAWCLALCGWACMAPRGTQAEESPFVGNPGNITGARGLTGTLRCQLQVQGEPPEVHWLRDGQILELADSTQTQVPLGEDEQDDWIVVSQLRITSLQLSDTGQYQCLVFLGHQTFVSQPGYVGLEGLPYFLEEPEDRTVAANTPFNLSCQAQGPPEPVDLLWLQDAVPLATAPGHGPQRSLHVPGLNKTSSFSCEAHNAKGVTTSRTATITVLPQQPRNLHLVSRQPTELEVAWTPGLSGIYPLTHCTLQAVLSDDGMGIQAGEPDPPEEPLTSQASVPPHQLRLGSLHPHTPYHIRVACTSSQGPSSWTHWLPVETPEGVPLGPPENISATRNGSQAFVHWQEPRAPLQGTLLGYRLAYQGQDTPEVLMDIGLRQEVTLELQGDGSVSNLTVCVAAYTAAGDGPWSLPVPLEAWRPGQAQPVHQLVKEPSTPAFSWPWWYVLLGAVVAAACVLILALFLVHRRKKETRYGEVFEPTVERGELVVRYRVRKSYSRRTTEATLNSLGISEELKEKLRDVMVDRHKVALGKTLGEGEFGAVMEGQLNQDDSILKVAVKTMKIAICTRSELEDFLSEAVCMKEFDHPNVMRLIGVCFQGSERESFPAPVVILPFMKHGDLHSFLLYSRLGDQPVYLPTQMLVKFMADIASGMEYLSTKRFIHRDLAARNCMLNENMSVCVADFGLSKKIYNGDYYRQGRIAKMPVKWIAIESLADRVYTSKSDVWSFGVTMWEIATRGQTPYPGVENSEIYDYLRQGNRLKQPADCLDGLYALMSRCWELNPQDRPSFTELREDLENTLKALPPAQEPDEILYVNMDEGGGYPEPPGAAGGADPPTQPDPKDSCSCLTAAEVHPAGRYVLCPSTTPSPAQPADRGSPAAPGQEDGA
Chain of MAP kinase-activated protein kinase 2 (P49137 whole entry): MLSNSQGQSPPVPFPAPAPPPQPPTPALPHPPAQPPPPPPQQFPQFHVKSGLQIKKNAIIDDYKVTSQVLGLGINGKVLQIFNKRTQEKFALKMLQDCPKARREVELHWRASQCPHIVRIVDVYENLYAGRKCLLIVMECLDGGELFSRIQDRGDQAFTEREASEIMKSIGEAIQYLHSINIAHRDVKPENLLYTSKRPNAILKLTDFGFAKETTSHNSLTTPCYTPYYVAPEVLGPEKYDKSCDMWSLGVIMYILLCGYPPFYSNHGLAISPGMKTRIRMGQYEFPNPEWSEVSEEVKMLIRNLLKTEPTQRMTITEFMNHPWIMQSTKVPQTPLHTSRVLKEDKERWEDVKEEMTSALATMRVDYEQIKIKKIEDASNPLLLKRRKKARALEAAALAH

CN(C(=O)c1cnn2cccnc12)c1cc2c(cc1N1CCOCC1)C(=O)N(C[C@@H](F)C(C)(C)O)C2
dTM [1]: -0.4 K

Nc1cnc(N2CCc3cc(S(=O)(=O)Nc4c(F)cc(Cl)cc4F)cc(N4CCCC4=O)c32)nc1 [TP-020n]
% of control [2]: 99%

Cc1cc(C)cc([C@@H]2c3cc(C)ccc3NC(=O)CN2C(=O)c2ccc(Br)s2)c1
% of activity ([3]; at 1 µM): 96.7%
% of activity ([3]; at 10 µM): 91.3%

Cc1ccc(-c2ccc3c(ccc4sc5c(c43)NC[C@@H](C)NC5=O)n2)cn1
% of inhibition [4]: -6%

CCC(=O)N1CC[C@H](Nc2ncnc3c2CN(c2cnc(OC)c(C(F)(F)F)c2)CC3)C1 [LENIOLISIB]
% of inhibition [5]: 98%

CCc1cccc(CC)c1NC(=O)c1nn(C)c2c1CCc1cnc(Nc3ccc(C(=O)NC4CCN(C)CC4)cc3OC(F)(F)F)nc1-2
IC50 [6]: > 10 µM

CC[C@@H]1[C@H](F)C(=O)N[C@@H]1COc1nccc2cc(C(N)=O)c(OC)cc12 [ZIMLOVISERTIB]
% of inhibition [7]: 12.2%
% of inhibition [8]: 18.6%

CN(C)CCOc1ccc(-c2nc(-c3ccncc3)c(-c3ccc4c(c3)CC/C4=N\O)[nH]2)cc1
% of control [9]: 0.5%
% of control [10]: 100%
% of control [11]: 97%

CCC(=O)N1CCN(c2ccc(-n3c(=O)ccc4cnc5ccc(-c6cnc7ccccc7c6)cc5c43)cc2C(F)(F)F)CC1
% of control [12]: 100%

— ChEMBL document CHEMBL5465560, “Selectivity Literature for EUbOPEN Chemogenomic Library” (2024)
